Experimental data: patent US9375443B2 (Signal Pharmaceuticals, LLC, priority 2012, dated 2016)
Read-outs that look alike come from different tables or passages of the source.

Key:
H520 = experiment: Proliferation Assays (NSCLC cell line sensitivity); format: cell-based; details: KRAS WT, EGFR WT
HCC15 = experiment: Proliferation Assays (NSCLC cell line sensitivity); format: cell-based; details: SQC, KRAS WT, EGFR WT
H1299 = experiment: Proliferation Assays (NSCLC cell line sensitivity); format: cell-based; details: KRAS WT, EGFR WT
H157 = experiment: Proliferation Assays (NSCLC cell line sensitivity); format: cell-based
[1] = test system: panel of NSCLC cell lines; experiment: Proliferation Assays, panel of NSCLC cell lines; format: cell-based; details: various degrees of sensitivity
H460 = experiment: Proliferation Assays (NSCLC cell line sensitivity); format: cell-based
A549 = experiment: Proliferation Assays (NSCLC cell line sensitivity); format: cell-based
H441 = experiment: Proliferation Assays (NSCLC cell line sensitivity); format: cell-based; details: BAC, KRAS MUT, EGFR WT
H1650 = experiment: Proliferation Assays (NSCLC cell line sensitivity); format: cell-based; details: KRAS WT, EGFR E746 A750del (exon19)
NCI-H23 = experiment: Proliferation Assays (NSCLC cell line sensitivity); format: cell-based
H2122 = experiment: Proliferation Assays (NSCLC cell line sensitivity); format: cell-based; details: KRAS MUT, EGFR WT
H1975 xenografts = experiment: H1975 xenograft in nude mice; format: in vivo, athymic nude mice; details: erlotinib 40 mg/kg 3× per week oral gavage, Compound 1 5 mg/kg/daily oral gavage, day 17 to day 30
Source text: (§1) A549 adenocarcinoma or H1975 cells in single cell suspension were implanted into the posterior flanks of athymic nude mice. […] For the A549 xenograft, the treatments were started on Day 26 after implantation and were stopped on day 53, while for the H1975 xenograft, the treatments were started on day 17 after implantation and were stopped on day 30.

HCC95 = experiment: Proliferation Assays (NSCLC cell line sensitivity); format: cell-based; details: SQC, KRAS WT, EGFR WT
A549 xenografts = experiment: A549 xenograft in nude mice; format: in vivo, athymic nude mice; details: erlotinib 40 mg/kg 3× per week oral gavage, Compound 1 5 mg/kg/daily oral gavage, Day 26 to day 53
Source text: as §1

H3255 = experiment: Proliferation Assays (NSCLC cell line sensitivity); format: cell-based; details: EGFR L858R
H226 = experiment: Proliferation Assays (NSCLC cell line sensitivity); format: cell-based; details: KRAS WT, EGFR WT
Calu-3 = experiment: Proliferation Assays (NSCLC cell line sensitivity); format: cell-based; details: ACA, KRAS WT, EGFR wt (HER2+)
H1703 = experiment: Proliferation Assays (NSCLC cell line sensitivity); format: cell-based; details: KRAS WT, EGFR WT
H2126 = experiment: Proliferation Assays (NSCLC cell line sensitivity); format: cell-based
H2009 = experiment: Proliferation Assays (NSCLC cell line sensitivity); format: cell-based; details: KRAS MUT, EGFR WT
H1975 = experiment: Proliferation Assays (NSCLC cell line sensitivity); format: cell-based; details: ACA, KRAS WT, EGFR L858R, T790M

Structure (SMILES): C#Cc1cccc(Nc2ncnc3cc(OCCOC)c(OCCOC)cc23)c1 [Erlotinib, erlotinib]
- IC50 (H520; Homo sapiens, NCI-H520, SQC): > 10 µM
- IC50 (HCC15): > 10 µM
- IC50 (H1299; Homo sapiens, NCI-H1299, Large Cell Neuroendocrin): > 10 µM
- IC50 (H157; Homo sapiens, NCI-H157): > 10 µM
- anti-proliferative activity [1]: demonstrated anti-proliferative activity
- IC50 (H460; Homo sapiens, NCI-H460, read-out: IC50 (value in parentheses beside > 10 μM)): 18 µM
- IC50 (H460; Homo sapiens, NCI-H460, H460, LCC, KRAS MUT G61H, EGFR WT, read-out: IC50): > 10 µM
- IC50 (A549; Homo sapiens, A549, read-out: IC50 (value in parentheses beside > 10 μM)): 25.2 µM
- IC50 (A549; Homo sapiens, A549, ACA, KRAS MUT G125, EGFR WT, read-out: IC50): > 10 µM
- IC50 (H441; Homo sapiens, NCI-H441, ACA): > 10 µM
- IC50 (H1650; Homo sapiens, NCI-H1650, ACA): 2.84 µM
- IC50 (NCI-H23; Homo sapiens, NCI-H23, read-out: IC50 (value in parentheses beside > 10 μM)): 22.8 µM
- IC50 (NCI-H23; Homo sapiens, NCI-H23, ACA, KRAS MUT 12 mutation G12C, read-out: IC50): > 10 µM
- IC50 (H2122; Homo sapiens, NCI-H2122, ACA): > 10 µM
- tumor growth during treatment (H1975 xenografts): moderately sensitive
- IC50 (HCC95; Homo sapiens): 6.45 µM
- tumor growth during treatment (A549 xenografts): resistant
- IC50 (H3255; Homo sapiens, NCI-H3255, ACA): 0.205 µM
- IC50 (H226; Homo sapiens, NCI-H226, SQC): > 10 µM
- IC50 (Calu-3; Homo sapiens): 7.09 µM
- IC50 (H1703; Homo sapiens, NCI-H1703, SCC): > 10 µM
- IC50 (H2126; Homo sapiens, NCI-H2126, read-out: IC50 (value in parentheses beside > 10 μM)): 19.8 µM
- IC50 (H2126; Homo sapiens, NCI-H2126, H2126, ACA, KRAS WT, EGFR WT, read-out: IC50): > 10 µM
- IC50 (H2009; Homo sapiens, NCI-H2009, ACA): 15.3 µM

Structure (SMILES): CO[C@H]1CC[C@H](N2C(=O)CNc3ncc(-c4ccc(C(C)(C)O)nc4)nc32)CC1 [Compound 1, 7-(6-(2-hydroxypropan-2-yl)pyridin-3-yl)-1-((1r,4r)-4-methoxycyclohexyl)-3,4-dihydropyrazino-[2,3-b]pyrazin-2(1H)-one]
- IC50 (H520; SQC): 0.374 µM
- IC50 (HCC15): 6.37 µM
- IC50 (H1299; Large Cell Neuroendocrin): 3.09 µM
- IC50 (H157; H157, SQC, KRAS MUT, EGFR WT): 2.61 µM
- anti-proliferative activity [1]: demonstrated anti-proliferative activity
- IC50 (H460; H460, LCC, KRAS MUT G61H, EGFR WT, read-out: IC50): 0.153 µM
- IC50 (A549; A549, ACA, KRAS MUT G125, EGFR WT, read-out: IC50): 0.58 µM
- IC50 (H441; ACA): 0.392 µM
- IC50 (H1650; ACA): 5.2 µM
- IC50 (NCI-H23; NCI-H23, ACA, KRAS MUT 12 mutation G12C, read-out: IC50): 3 µM
- IC50 (H2122; ACA): 1.59 µM
- IC50 (HCC95): 0.724 µM
- IC50 (H3255; ACA): 11.9 µM
- IC50 (H226; SQC): 1.98 µM
- IC50 (Calu-3): 0.184 µM
- IC50 (H1703; SCC): 1.64 µM
- IC50 (H1975): 0.25 µM
- IC50 (H2126; H2126, ACA, KRAS WT, EGFR WT, read-out: IC50): 0.214 µM
- IC50 (H2009; ACA): 5.05 µM
